Assay results reported in ChEMBL document CHEMBL3886450, “Tricyclic indole derivatives useful endothelial lipase inhibitors” (2015).

Target: T1, Endothelial lipase (Homo sapiens, UniProt Q9Y5X9)
T1 sequence (Q9Y5X9 whole entry): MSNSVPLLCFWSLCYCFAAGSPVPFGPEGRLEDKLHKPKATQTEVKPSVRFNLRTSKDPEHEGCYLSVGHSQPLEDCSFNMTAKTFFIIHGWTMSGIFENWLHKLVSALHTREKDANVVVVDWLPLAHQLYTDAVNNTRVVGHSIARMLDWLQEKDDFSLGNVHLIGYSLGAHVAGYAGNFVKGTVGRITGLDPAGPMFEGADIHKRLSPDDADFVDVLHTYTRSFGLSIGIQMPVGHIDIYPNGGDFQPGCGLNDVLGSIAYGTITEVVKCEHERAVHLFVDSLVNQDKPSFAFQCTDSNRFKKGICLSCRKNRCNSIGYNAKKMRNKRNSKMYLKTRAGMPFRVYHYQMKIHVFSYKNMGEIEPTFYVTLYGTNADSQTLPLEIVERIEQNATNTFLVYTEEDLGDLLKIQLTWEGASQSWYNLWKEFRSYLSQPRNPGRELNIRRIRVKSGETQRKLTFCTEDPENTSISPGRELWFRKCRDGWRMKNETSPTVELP
Assay: Endothelial Lipase Assay: To assay for cell surface lipase activity, cells expressing human endothelial lipase (EL) or LPL were plated in CellBIND® 384-well plates (Corning, Lowell, Mass.) in 25 μL serum free medium at a density of 2000 cells/well. After 18-24 hours incubation at 37° C., the medium was removed and replaced with 15 μL assay buffer [Hank's Buffered Saline Solution with 25 mM HEPES pH 7.2] and 15 μL PLA1 substrate for a final concentration of 10 μM using a Multidrop reagent dispenser. Fluorescence signal was monitored for 30 min at 37° C. on a Safire II plate reader in kinetic mode (60 cycles, kinetic interval: 30 seconds) with an excitation wavelength of 490 nm and an emission wavelength of 515 nm.
Assay type: cell-based

| IC50 [nM] | SMILES |
| --- | --- |
| 68 | NS(=O)(=O)N1CCn2c(CCc3ccccc3)c(C(F)(F)F)c3cccc(c32)C1 |
| 101 | CC(CC(=O)N1CCn2c(CCc3ccccc3)c(C(F)(F)F)c3cccc(c32)C1)C(F)(F)F (configuration not stated) |
